Experimental data taken from ChEMBL document CHEMBL2417430, “A synthetic approach to novel carvotacetone and antheminone analogues with anti-tumour activity” (Bioorg Med Chem Lett, 2013).

What was measured:
A549 = assay: Cytotoxicity against human A549 cells after 4 days by MTT assay; type: functional, cell-based; details: A549, 96 h
MCF-10A = assay: Cytotoxicity against human MCF10A cells after 4 days by MTT assay; type: cell-based; details: 96 h

With `CC(C)[C@H]1CC(=O)C(CO)=C[C@@H]1O` the IC50 (A549) was 159 µM.

Work on `C/C=C/C(=O)OCC1=C[C@H](O)[C@H](c2ccccc2)CC1=O` yielded an IC50 (A549) of 8 µM.

`C/C=C/C(=O)OCC1=C[C@H](O)[C@@H](c2ccccc2)CC1=O` showed an IC50 (MCF-10A) of 1.8 µM and an IC50 (A549) of 1.3 µM.

`C/C=C/C(=O)OCC1=C[C@H](O)[C@@H](C(C)C)CC1=O` gave an IC50 (A549) of 14 µM.

`C/C=C/C(=O)OCC1=C[C@@H](O)CCC1=O` gave an IC50 (A549) of 16.7 µM.

In the case of `C/C=C/C(=O)OCC1=C[C@H](O)[C@@H]2C[C@@H]2C1=O`, the IC50 (A549) is reported as 18.1 µM.
